Measurements reported in patent US20010053774A1, “Non-steroidal ligands for the estrogen receptor” (GLAXO WELLCOME INC.., priority 1994, published 2001).

How the values were obtained:
[1] = test system: Ishikawa human endometrioma cell line; test: Ishikawa cell functional assay of estrogenic activity (alkaline phosphatase induction); type: cell-based
Protocol: Subconfluent Ishikawa-Var I cells were removed from maintenance growth conditions and resuspended in phenol red-free DMEM-F12 containing 5% charcoal stripped FBS and 2 mM glutamine at a concentration of 58,500 cells/mL. Cells were plated at a density of 13,000 cells/cm^2 and placed in an incubator (37° C., 5% CO2) for 3 days. Cells were harvested and resuspended in phenol red-free DMEM-F12 containing 1% charcoal stripped FBS, 2 mM glutamine, 100 Units/mL penicillin and 100 μg/mL streptomycin to a concentration of 83,000 cells/mL. Cells were seeded at a density of 8300 cells/well in 96 well plates and allowed to attach overnight. Appropriate drug treatments at 2× concentrations were added in 0.1 mL of medium containing 0.2% DMSO. Plates were incubated for 2 days, media was aspirated and plates washed once with 300 μL 0.9% sterile saline. Plates were frozen at −70° C. and then warmed to RT. The attached cells were assayed for alkaline phosphatase activity by addition of 200 μL of 5 mM p-nitrophenylphosphate in 1 M diethanolamine, pH 10.4, containing 0.1% (w/v) Triton X-100, incubation at 37° C. for 30 min and measurement of absorbance at 405 nm on a Molecular Devices ThermoMax plate reader.

[2] = test system: 21 day old female SD rats; test: in-vivo anti-uterotrophic activity in immature rats (uterine weight/body weight); design: species or system rat; details: 10 μmol/kg by gavage for 3 days, compared with tamoxifen
Protocol: In order to evaluate the compounds set forth above for in-vivo anti-uterotrophic activity, groups of five 21 day old female SD rats (30-35 g) were weighed and the average weights recorded for each treatment group as illustrated in FIG. 1. Stock solutions (10×) of the triphenylethylene analogs in ethanol were diluted with 0.5% methyl cellulose and 10 μmol/kg was dosed by gavage to the animals. Estradiol was dissolved in sesame oil and 100 nmol/kg dosed by subcutaneous injection. Animals were dosed for 3 days and sacrificed on day 4 by CO2 asphyxiation. The body weights were obtained, uteri removed, blotted and weighed. Data is expressed as uterine weight/body weight±standard error. Solid bars represent data from animals dosed with test compound alone. Open bars represent data from animals dosed with test compounds 6h prior to a dose of estradiol.

[3] = test system: 90 day old estrogen deficient ovariectomized rats; test: bone mineral density in ovariectomized rats (lumbar spine and tibia); type: in vivo, rat; details: 10 μmol/kg orally once a day for 28 days, versus sham-operated
Protocol: As an example of the functional profile of these compounds in bone, Compound No. 9 was evaluated in 90 day old estrogen deficient ovariectomized rats for their ability to inhibit loss of bone mineral density. Ninety day old SD rats were divided into groups of six. […] were surgically ovariectomized. Two days post-ovariectomy, animals were dosed by gavage with either 10 μmol/kg of Compound No. 9 in 0.5% methyl cellulose or vehicle once a day for 28 days. One group of aminals was sham-operated, and 2 days post-ovariectomy dosed with vehicle once a day for 28 days. At 0, 14 and 28 days, rats were anesthesized with isoflurane and placed in the supine position with their spines parallel to the long axis of the densitometer table. The lumbar spine was scanned using the pelvic bones as a landmark. […] The right tibia was analysed with subregional high resolution software, focusing on the 3-5 mm distal from the growth plate previously identified as a region of accelerated bone loss due to ovariectomy.
BMD was measured by dual-energy X-ray absorptiometry using a Hologic QDR-2000 bone densitometer using a regional high-resolution software package with default scan length, width, line spacing and point resolution of 2, 0.75, 0.01 and 0.005 in. respectively.

CCC(=C(c1ccccc1)c1ccc(C=CC(=O)O)cc1)c1ccccc1 [Compound No. 9, 3-[4-(1,2-Diphenyl-but-1-enyl)-phenyl]-acrylic acid]
EC50 ([1]; Homo sapiens, 48 h, Ishikawa-Var I cells, 2 days incubation, estrogen agonist activity, read-out: EC50 (concentration inducing 50% of maximal alkaline phosphatase activity)): 0.058 µM | Emax ([1]; Homo sapiens, Ishikawa, percentage of the alkaline phosphatase activity induced by a saturating concentration of estradiol, read-out: Emax (maximal alkaline phosphatase activity)): 3.8 ± 0.9% | agonist activity (Emax) in the Ishikawa cell functional assay (in words) ([1]; comparison with tamoxifen or within the series): lowest residual agonist activity | residual agonist activity, uterine weight/body weight (FIG. 1) [2]: less residual agonist activity than tamoxifen | bone mineral density (BMD), lumbar spine and tibia (FIG. 2) [3]: full agonist activity
